For data set [1], the system named is guinea pigs. Nature of the data set: learned helplessness test for antidepressant/antianxiety activity. It is filed as in vivo. Conditions: guinea pig. The source says:
The utility of the compounds for example to treat depression may be shown via a learned helplessness test in guinea pigs, which is used extensively as correlative to antidepressant activity in humans. The learned helplessness test may be carried out as follows: Seventy male Hartley guinea pigs, each weighing about 350-425 gm are fed ad lib, and are housed under a 12-hour light/dark cycle. The procedure consists of two phases: The induction phase and the avoidance training phase. In the induction phase, subjects are placed into standard shuttle cages (20 L×16 W×21 centimeters H) which are fitted with a grid floor. Electrical stimulation (1.25 mA, 10 sec duration) is delivered to the floor of the cage every 90-sec during 1 hour daily sessions. Subjects have no opportunity to escape or to avoid shocks. Induction is conducted for 2 consecutive days.
In avoidance training, testing is also conducted in the shuttle cages, except that the subjects are not returned to the same chamber in which induction had occurred. Additionally, all cages are fitted with a partition with an arch in the center of the cage, through which animals can pass between the left and right halves of the cage. The procedure employed is a standard shuttle avoidance procedure in which a compound, conditioned stimulus (a 10-sec presentation of a tone and turning on of a lamp on the side of the cage that the guinea pig was occupying) serves to indicate presentation of electrical current to the floor of the cage. Shock is presented for a 5 sec period, 5 sec after initiation of the conditioned stimulus. Entry into the opposite side of the shuttle cage via the arched partition prior to shock onset results in the end of the trial (avoidance response). If shock is delivered, entry into the opposite side of the cage results in termination of the shock and CS (escape). Reversal of learned helplessness in the induction subjects correlates to antidepressant activity of the test compound.
Avoidance training, 45-min in duration, is conducted on 2 consecutive days, beginning 48 hr after the final induction session. Seventy subjects are assigned to 1 of 6 groups of 11-12 animals. The groups are as follows:
1) No induction group. The subjects are placed into the shuttle cages but are not given inescapable shock, the animals are subsequently trained in the avoidance procedure and the vehicle is administered;
2) Induction vehicle control group;
3) Imipramine 17.8 mg/kg;
5) 1 mg/kg compounds; and
Groups 2-6 are given induction and avoidance training sessions. Injections are administered immediately following induction sessions and 1 hour prior to avoidance training sessions. A second injection is administered 7-8 hours following the first injection, for a total of 9 injections administered over 5 days. […]

In turn, `CN1CCN(c2cccc3c2OC(C(=O)Nc2ccc(N4CCOCC4)cc2)CC3)CC1` (single isomer, unassigned; (+)) [Example 76, (+)-8-(4-Methyl-piperazin-1-yl)-chroman-2-carboxylic acid (4-morpholin-4-yl-phenyl)-amide] yielded a melting point of 206 to 207 °C.
Same read-out and setting: the figure for `CN1CCN(c2cccc3c2OC(C(=O)Nc2ccc(N4CCOCC4)cc2)CC3)CC1` (single isomer, unassigned; (-)) [Example 77, (−)-8-(4-Methyl-piperazin-1-yl)-chroman-2-carboxylic acid (4-morpholin-4-yl-phenyl)-amide] is 205.5 to 207 °C; for `CN1CCN(c2cccc3c(=O)cc(C(=O)Nc4ccc(N5CCOCC5)cc4O)oc23)CC1` [Example 22, 8-(4-Methyl-piperazin-1-yl)-4-oxo-4H-chromene-2-carboxylic acid (2-hydroxy-4-morpholin-4-yl-phenyl)-amide] it is 248.4 to 249.6 °C.
`CCS(=O)(=O)N1CCN(c2ccc(NC(=O)c3cc(=O)c4cc(F)cc(N5CCN(C)CC5)c4o3)cc2)CC1` [Example 71, 6-Fluoro-8-(4-methyl-piperazin-1-yl)-4-oxo-4H-chromene-2-carboxylic acid [4-(4-ethane sulfonyl-piperazin-1-yl)-phenyl]-amide] registered a melting point of 233 to 234 °C. Further, in data set [1], the “activity in the learned helplessness assay” value (shortened to “activity”) is “demonstrate activity”.
Take `CCC(=O)N1CCN(c2ccc(NC(=O)c3cc(=O)c4cc(OC)cc(N5CCN(C)CC5)c4o3)cc2)CC1` [Example 44, 6-Methoxy-8-(4-methyl-piperazin-1-yl)-4-oxo-4H-chromene-2-carboxylic acid [4-(4-propionyl-piperazin-1-yl)-phenyl]-amide]: the “activity” value in data set [1] is recorded as “demonstrate activity”.
Regarding `CN1CCN(c2cccc3c2OC(C(=O)Nc2ccc(N4CCOCC4)cc2)CC3=O)CC1` (single isomer, unassigned) [Example 79, 8-(4-Methyl-piperazin-1-yl)-4-oxo-chroman-2-carboxylic acid (4-morpholin-4-yl-phenyl)-amide (faster running isomer)], the melting point was 216 °C (dec.).
On the same count and under the same terms, the figure for `CN1CCN(c2cccc3c2OC(C(=O)Nc2ccc(N4CCOCC4)cc2)CC3)CC1` (racemic) [Example 75, racemic-8-(4-Methyl-piperazin-1-yl)-chroman-2-carboxylic acid (4-morpholin-4-yl-phenyl)-amide] is 215 to 216 °C; for `CCNC(=O)N1CCN(c2ccc(NC(=O)c3cc(=O)c4cc(F)cc(N5CCN(C)CC5)c4o3)cc2)CC1` [Example 81, 4-[4-({1-[6-Fluoro-8-(4-methyl-piperazin-1-yl)-4-oxo-4H-chromen-2-yl]-methanoyl}-amino)-phenyl]-piperazine-1-carboxylic acid ethylamide] it is 236 to 238 °C.
The same measure, in the same setting: the figure for `CN1CCN(c2cccc3c2OC(C(=O)Nc2ccc(N4CCOCC4)cc2)CC3=O)CC1` (racemic) [Example 78, racemic-8-(4-methyl-piperazin-1-yl)-4-oxo-chroman-2-carboxylic acid (4-morpholin-4-yl-phenyl)-amide] is 215 to 216 °C; for `CN1CCN(c2cc(F)cc3c(=O)cc(C(=O)Nc4ccc(N5CCN(C(=O)CCO)CC5)cc4)oc23)CC1` [Example 73, 6-Fluoro-8-(4-methyl-piperazin-1-yl)-4-oxo-4H-chromene-2-carboxylic acid {4-[4-(3-hydroxy-propanoyl)-piperazin-1-yl]-phenyl}-amide] it is 195 to 199 °C.
The same measure, in the same setting: the same measure for `COc1cc(N2CCN(C)CC2)c2oc(C(=O)Nc3ccc(N4CCN(C(=O)CCO)CC4)cc3)cc(=O)c2c1` [Example 68, 6-Methoxy-8-(4-methyl-piperazin-1-yl)-4-oxo-4H-chromene-2-carboxylic acid {4-[4-(3-hydroxy-propanoyl)-piperazin-1-yl]-phenyl}-amide]: 195 to 197 °C.
`CN1CCN(c2cccc3c(=O)cc(C(=O)Nc4ccc(N5CCOCC5)cc4)oc23)CC1` [Example 1, 8-(4-methyl-1-piperazinyl)-N-[4-(4-morpholinyl)phenyl]-4-oxo-4H-chromene-2-carboxamide]: the melting point was 217 to 218 °C (dec.).
On the same count and under the same terms, the figure for `CN1CCN(c2cccc3c(=O)cc(-c4nc5ccc(N6CCOCC6)cc5o4)oc23)CC1` [Example 21, 8-(4-Methyl-piperazin-1-yl)-2-(6-morpholin-4-yl-benzooxazol-2-yl)-chromen-4-one] is 158.1 to 158.8 °C; for `CN1CCN(c2cccc3c2OC(C(=O)Nc2ccc(N4CCOCC4)cc2)CC3=O)CC1` (single isomer, unassigned) [Example 80, 8-(4-Methyl-piperazin-1-yl)-4-oxo-chroman-2-carboxylic acid (4-morpholin-4-yl-phenyl)-amide (slower running isomer)] it is 215 °C (dec.).
With `CCC(=O)N1CCN(c2ccc(NC(=O)c3cc(=O)c4cc(F)cc(N5CCN(C)CC5)c4o3)cc2)CC1` [Example 72, 6-Fluoro-8-(4-methyl-piperazin-1-yl)-4-oxo-4H-chromene-2-carboxylic acid [4-(4-propionyl-piperazin-1-yl)-phenyl]-amide], the “activity” value in data set [1] is recorded as “demonstrate activity”.
The compound `COc1cc(N2CCN(C)CC2)c2oc(C(=O)Nc3ccc(N4CCOCC4)cc3)cc(=O)c2c1` [Example 31, 6-Methoxy-8-(4-methyl-piperazin-1-yl)-4-oxo-4H-chromene-2-carboxylic acid (4-morpholin-4-yl-phenyl)-amide] showed a melting point of 234 to 236 °C. Further, the “activity” value in data set [1] is “demonstrate activity”.
For `CN1CCN(c2cccc3c(=O)cc(C(=O)N(C)c4ccc(N5CCOCC5)cc4)oc23)CC1` [Example 25, 8-(4-Methylpiperazin-1-yl)-4-oxo-4H-chromene-2-carboxylic acid methyl-(4-morpholin-4-yl-phenyl)amide], the melting point was 245 to 246.8 °C.

These data come from patent US20060178372A1, “Therapeutic quinoline compounds” (AstraZeneca AB, priority 2001, published 2006).
